Active and inactive are the calls of the source. Where only a bound is given, the exact number is not on record here.

The nature of assay [1]: Luminescence Cell-Based Dose Confirmation HTS to Identify Inhibitors of Platelet Dense Granule Release. [Related pubchem assays: 1663 (Primary HTS), 1678 (Summary of Project)]. The format is functional.
The nature of assay [2]: Luminescence Cell-Based Dose Retest to Confirm Inhibitors of Cancer Stem Cells. [Related pubchem assays (depositor defined):AID2717, AID2721]. The class given is functional. The settings on record: Homo sapiens.
Assay [3] concerns the target Luciferin 4-monooxygenase (Photinus pyralis, UniProt P08659). Put plainly: firefly luciferase enzyme inhibitors, dose response, biochemical, luminescence (AID 1891).
Assay [4] is described as follows: HEp-2 cell cytotoxicity, dose response, cytotoxicity control for RSV inhibitor project, HTS (AID 2410). The class given is functional. The settings on record: human respiratory syncytial virus.
In assay [5] the target is T1, Polyadenylate-binding protein 1 (Homo sapiens, UniProt P11940). Briefly: PABP1 MLLE–PAM2 interaction inhibitors, dose response, miRNA deadenylation inhibitor project, biochemical, fluorescence polarization, Cy5-PAM2 peptide, secondary (AID 602260). The class given is functional. The settings on record: read-out: IC50_Mean.
T1 sequence (P11940 whole entry): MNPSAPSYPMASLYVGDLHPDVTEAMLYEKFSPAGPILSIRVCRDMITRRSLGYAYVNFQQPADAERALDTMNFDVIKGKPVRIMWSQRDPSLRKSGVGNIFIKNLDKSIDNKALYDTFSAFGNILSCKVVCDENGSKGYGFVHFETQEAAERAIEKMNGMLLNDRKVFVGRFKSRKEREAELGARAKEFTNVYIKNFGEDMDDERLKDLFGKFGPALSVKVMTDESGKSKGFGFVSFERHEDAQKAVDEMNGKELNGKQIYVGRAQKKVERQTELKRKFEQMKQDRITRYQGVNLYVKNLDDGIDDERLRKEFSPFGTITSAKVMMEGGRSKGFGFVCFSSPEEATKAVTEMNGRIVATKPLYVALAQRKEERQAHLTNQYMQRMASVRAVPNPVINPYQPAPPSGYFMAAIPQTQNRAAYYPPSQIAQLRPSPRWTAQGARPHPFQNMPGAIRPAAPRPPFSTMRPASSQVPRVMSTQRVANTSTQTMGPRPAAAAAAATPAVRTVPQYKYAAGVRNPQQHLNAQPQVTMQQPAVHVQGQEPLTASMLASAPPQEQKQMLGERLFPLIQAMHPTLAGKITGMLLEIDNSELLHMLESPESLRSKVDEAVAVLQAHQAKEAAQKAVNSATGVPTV
Assay [6] deals with T1, Polyadenylate-binding protein 1. Briefly: PABP1 MLLE–PAM2 binding inhibitor potency, dose response, biochemical, fluorescence polarization, FITC-PAM2 peptide (AID 602259). The class given is functional. Conditions: read-out: IC50_Mean.
Assay [7] deals with T2, Ubiquitin-conjugating enzyme E2 N (Homo sapiens, UniProt P61088).
T2 sequence (P61088 whole entry): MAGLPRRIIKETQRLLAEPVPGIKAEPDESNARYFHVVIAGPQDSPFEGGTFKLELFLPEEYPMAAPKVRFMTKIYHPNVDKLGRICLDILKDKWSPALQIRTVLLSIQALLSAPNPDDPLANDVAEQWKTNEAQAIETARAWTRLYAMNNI
The class given is functional.

For a further assay, the target named is Large T antigen (Simian virus 40, UniProt P03070). The class given is functional, Betapolyomavirus macacae.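 Further: Confirmatory-stage PubChem screen for compounds that inhibit SV40 T antigen.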
Chain of Large T antigen (P03070 whole entry): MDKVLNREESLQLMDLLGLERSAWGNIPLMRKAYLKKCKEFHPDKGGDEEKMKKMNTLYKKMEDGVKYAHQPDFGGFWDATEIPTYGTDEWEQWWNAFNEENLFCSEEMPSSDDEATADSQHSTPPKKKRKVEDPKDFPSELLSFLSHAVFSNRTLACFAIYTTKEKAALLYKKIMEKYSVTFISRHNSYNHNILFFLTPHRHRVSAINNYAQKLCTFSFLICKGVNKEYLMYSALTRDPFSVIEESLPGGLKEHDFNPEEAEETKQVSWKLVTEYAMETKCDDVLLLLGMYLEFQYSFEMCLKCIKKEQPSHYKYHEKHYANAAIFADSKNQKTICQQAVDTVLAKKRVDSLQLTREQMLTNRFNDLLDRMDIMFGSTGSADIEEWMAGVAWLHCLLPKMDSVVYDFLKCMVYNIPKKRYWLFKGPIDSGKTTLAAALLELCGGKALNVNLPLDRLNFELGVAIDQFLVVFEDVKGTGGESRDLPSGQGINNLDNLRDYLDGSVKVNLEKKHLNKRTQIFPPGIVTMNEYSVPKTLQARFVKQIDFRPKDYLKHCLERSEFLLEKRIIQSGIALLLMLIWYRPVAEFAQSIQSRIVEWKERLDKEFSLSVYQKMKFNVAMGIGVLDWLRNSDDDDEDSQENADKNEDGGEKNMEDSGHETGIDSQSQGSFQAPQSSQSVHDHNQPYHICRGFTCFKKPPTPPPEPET
The target of a further assay is Nonstructural protein 1 (Influenza A virus, UniProt Q194T2). The class given is functional, Influenza A virus (A/California/07/2009(H1N1)).
Chain of Nonstructural protein 1 (Q194T2 whole entry): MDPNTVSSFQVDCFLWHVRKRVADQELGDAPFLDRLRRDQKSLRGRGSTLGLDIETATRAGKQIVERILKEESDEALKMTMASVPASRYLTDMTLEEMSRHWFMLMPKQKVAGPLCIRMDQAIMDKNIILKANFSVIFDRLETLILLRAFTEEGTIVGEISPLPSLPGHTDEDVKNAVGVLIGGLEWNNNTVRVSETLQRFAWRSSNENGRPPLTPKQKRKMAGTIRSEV
The subject of a further assay is H9c2. Briefly: cells. The class given is functional, cell-based. Conditions: Rattus norvegicus, H9c2, Myocardium.
Assay [8] can be described thus: inhibitors of HIV Env-driven cell fusion, dose response, cherry-pick (AID 652057). The class given is functional, cell-based.
Assay [9] in a line: Shn3 3'UTR reporter inhibitors, dose response, cell-based, Clone20 osteoblasts, firefly luciferase, cherry-picked (AID 624132).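 Further: firefly luciferase luminescence from reporter carrying the Shn3 3'UTR in osteoblasts.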 The class given is functional.
The nature of assay [10]: HepG2 cell cytotoxicity, dose response, cytotoxicity control for Shn3 inhibitor project, CellTiter-Glo, cherry-picked (AID 624134). The format is functional, cell-based.
A short description of assay [11]: control 3'UTR Renilla luciferase suppression, dose response, counter-screen for Shn3 inhibitor project, cell-based, Clone20-Shn3RL, cherry-picked (AID 624133). The format is functional.
The test system of a further assay is INS1. Briefly: beta cell apoptosis inhibitors, cytokine rescue, dose response, luminescence, retest (AID 449756).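 Further: cell death triggered by IL-1 beta plus TNF-alpha plus IFN-gamma mixture; protective hits raise ATP signal compared with cytokine alone wells.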 The format is functional, cell-based. Conditions: Rattus norvegicus.
Assay [12] addresses T3, Heat shock factor protein 1 (Mus musculus, UniProt P38532).
T3 sequence (P38532 whole entry): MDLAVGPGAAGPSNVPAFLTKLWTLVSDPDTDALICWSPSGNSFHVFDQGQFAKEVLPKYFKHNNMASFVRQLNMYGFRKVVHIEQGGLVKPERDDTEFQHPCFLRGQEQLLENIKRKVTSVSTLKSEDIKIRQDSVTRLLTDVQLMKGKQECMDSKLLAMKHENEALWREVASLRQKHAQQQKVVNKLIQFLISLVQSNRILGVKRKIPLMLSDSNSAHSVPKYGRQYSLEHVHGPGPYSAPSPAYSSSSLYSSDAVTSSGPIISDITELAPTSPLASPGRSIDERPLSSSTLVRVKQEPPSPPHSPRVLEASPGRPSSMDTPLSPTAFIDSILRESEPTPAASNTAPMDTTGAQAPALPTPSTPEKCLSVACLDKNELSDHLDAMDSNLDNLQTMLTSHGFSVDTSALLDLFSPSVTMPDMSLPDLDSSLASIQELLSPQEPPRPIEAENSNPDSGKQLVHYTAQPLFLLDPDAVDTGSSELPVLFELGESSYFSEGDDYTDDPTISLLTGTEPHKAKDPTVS
Put plainly: HSF1 potentiators in luciferase reporter cells, confirmation, cell-based, NIH3T3, luminescence, dose retest (AID 435004).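 Further: stress induced by proteasome inhibitor MG132 added 30 min after compound; luciferase reporter driven by HSF1 response element in NIH3T3 cells; actives raise luminescence as potentiators of the MG132 stress response.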 The class given is functional.

Assay [13] in a line: cytotoxicity toward NIH3T3 fibroblasts, dose response, counter-screen, cell-based, ATP luminescence, mouse fibroblasts (AID 2010).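 Further: cells exposed to compound for about 90 hours before reading.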 The class given is functional.
The nature of assay [14]: inhibitors of intracellular T. cruzi replication, confirmation, NIH3T3 host cells, beta-gal luminescence (AID 2044).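 Further: intracellular parasites grown in NIH/3T3 mouse fibroblasts as host cells; luminescent beta-galactosidase reporter signal from transgenic T. cruzi replicating inside host cells; inhibitors lower the luminescence signal.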 The format is functional, cell-based.
The test system of another assay is H4. Briefly: Luminescence Cell-Based Dose Response HTS to Identify Activators of 5'UTR Stem-Loop Driven Prion Protein mRNA Translation in H4 Neuroglioblastoma Cells. [Related pubchem assays: 1829 (Project Summary), 1814 (Primary HTS)]. The settings on record: Homo sapiens. The class given is functional.
The target in the next assay is Cytochrome P450 2C9 (Homo sapiens, UniProt P11712).
Chain of Cytochrome P450 2C9 (P11712 whole entry): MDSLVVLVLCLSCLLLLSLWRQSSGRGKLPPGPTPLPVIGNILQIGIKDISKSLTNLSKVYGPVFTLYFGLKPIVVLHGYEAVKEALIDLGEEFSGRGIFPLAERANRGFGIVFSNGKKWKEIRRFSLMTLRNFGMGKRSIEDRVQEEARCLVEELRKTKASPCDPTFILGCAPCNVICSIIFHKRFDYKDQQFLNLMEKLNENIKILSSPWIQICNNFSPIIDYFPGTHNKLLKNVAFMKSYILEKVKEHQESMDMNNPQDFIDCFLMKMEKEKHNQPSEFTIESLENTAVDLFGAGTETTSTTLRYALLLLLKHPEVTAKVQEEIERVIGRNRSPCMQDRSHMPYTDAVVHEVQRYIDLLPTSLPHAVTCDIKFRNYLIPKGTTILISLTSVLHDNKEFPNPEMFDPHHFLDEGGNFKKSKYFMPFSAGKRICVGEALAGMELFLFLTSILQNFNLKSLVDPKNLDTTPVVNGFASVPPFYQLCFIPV
Assay [15] in a line: Luminescence Cell-Based Dose Confirmation HTS to Identify Activators of 5'UTR Stem-Loop Driven Alpha-Synuclein mRNA Translation in H4 Neuroglioblastoma Cells. [Related pubchem assays: 1829 (Project Summary), 1814 (Primary HTS)]. The class given is functional.
The target of another assay is Cytochrome P450 2D6 (Homo sapiens, UniProt P10635).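 Further: CYP2D6 member of a cytochrome P450 panel assay.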
Chain of Cytochrome P450 2D6 (P10635 whole entry): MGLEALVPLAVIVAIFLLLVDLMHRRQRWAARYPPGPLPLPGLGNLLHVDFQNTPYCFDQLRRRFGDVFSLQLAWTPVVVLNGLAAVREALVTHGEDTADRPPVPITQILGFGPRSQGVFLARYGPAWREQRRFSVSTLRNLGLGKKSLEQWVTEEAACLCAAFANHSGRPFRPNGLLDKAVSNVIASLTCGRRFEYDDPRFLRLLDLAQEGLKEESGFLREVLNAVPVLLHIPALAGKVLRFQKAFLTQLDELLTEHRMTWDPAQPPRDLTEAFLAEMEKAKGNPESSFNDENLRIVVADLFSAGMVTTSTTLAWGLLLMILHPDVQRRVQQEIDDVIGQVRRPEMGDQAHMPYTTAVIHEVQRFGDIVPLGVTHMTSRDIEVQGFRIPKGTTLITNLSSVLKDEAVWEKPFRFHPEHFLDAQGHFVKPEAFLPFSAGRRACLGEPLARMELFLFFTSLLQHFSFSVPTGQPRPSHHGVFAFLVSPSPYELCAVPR
Assay [16] is described as follows: Luminescence Cell-Based Dose Response HTS to Identify Activators of Luciferase Translation or Activity in H4 […] Cells. [Related pubchem assays: 1829 (Project Summary), 1814 (Primary HTS)]. The class given is functional.
Assay [17] is described as follows: growth suppression of beta-catenin-knockout colon cells, dose response, cell-based, HCT116, human colon tumor (AID 1045).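 Further: HCT116 colon tumor cells with beta catenin knocked out; cells exposed to compound for 60 hours.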 The class given is functional.
The nature of assay [18]: growth suppression of PTEN-null colon cells, dose response, cell-based, HCT116 PTEN knockout (AID 1047).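 Further: HCT116 colon tumor cells with PTEN knocked out; cells exposed to compound for 60 hours before readout; potency for loss of cell viability measured by luminescence.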 The class given is functional.

Chain of Luciferin 4-monooxygenase (P08659 whole entry): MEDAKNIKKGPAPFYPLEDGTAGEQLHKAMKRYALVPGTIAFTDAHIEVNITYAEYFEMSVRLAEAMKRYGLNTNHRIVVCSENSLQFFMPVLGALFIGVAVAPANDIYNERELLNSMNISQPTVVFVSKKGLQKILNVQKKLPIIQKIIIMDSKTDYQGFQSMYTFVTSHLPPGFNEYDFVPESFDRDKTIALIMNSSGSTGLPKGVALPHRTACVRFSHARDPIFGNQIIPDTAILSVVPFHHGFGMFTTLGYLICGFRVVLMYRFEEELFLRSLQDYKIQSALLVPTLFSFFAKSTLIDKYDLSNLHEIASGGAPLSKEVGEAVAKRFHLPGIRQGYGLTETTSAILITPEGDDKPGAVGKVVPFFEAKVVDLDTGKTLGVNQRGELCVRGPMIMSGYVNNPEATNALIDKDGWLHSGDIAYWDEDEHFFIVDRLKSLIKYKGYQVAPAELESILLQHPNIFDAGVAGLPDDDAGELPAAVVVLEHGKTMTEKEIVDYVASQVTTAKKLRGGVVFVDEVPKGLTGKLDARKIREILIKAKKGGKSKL

For the compound `Oc1ccccc1N1CCN(c2ncnc3sc(-c4ccccc4)cc23)CC1`, the EC50 in [1] and in assay [3] was > 112 µM (not active) each time. Moreover, the AC50 in [2] is 3.87 µM (active). The CC50 in assay [4] is 14.2 µM (active).

For `CCOC(=O)c1ccc(N2C(=O)CC(Sc3ncccn3)C2=O)cc1` (stereo not drawn), the IC50 in assay [5] and in assay [6] was > 66 µM (inactive) in each case.

As for `CCC(=O)NCCc1nc2ccccc2n1Cc1ccc(C)cc1`, the EC50 in [1] and in assay [3] was > 112 µM (not active) throughout.

`COc1ccc(-c2csc(CCn3nc(C)cc3C)n2)cc1OC`: the EC50 in assay [1] and in assay [3] was > 112 µM (not active) in each case.

With `COC(=O)c1sccc1N=C(S)Nc1cc(C)cc(C)c1`, the IC50 in assay [5] and in [6] was > 66 µM (inactive) in each case.

As for `O=C(CSC1=NS(=O)(=O)c2ccccc21)Nc1ccccc1`, the IC50 in assay [7] is > 20 µM (inactive); on Large T antigen, 12.2 µM (active).

With `COn1c(C)c(C(C)=O)c2c3nonc3ccc21`, the concentration for a half-maximal effect (EC50) in assay [1] and in assay [3] was > 112 µM (not active) throughout.

Regarding `NC(=O)c1ccsc1NC(=O)CSc1nc2ccccc2c(=O)n1CCCO`, the IC50 in [5] and in [6] was > 66 µM (inactive) throughout.

In the case of `CCOc1ccccc1C(=O)N/N=C/c1cccc2cccnc12`, the IC50 was 32.3 µM (active) at Nonstructural protein 1 and 12.4 µM (active) in the assay on H9c2.

Consider `Cn1c(C(=O)NCCCN2CCN(c3cccc(Cl)c3)CC2)cc2c(=O)n(C)c3ccccc3c21`, for which the IC50 in assay [7] was > 20 µM (inactive).

Consider `COc1cc(NC(S)=Nc2ccc(OC(F)F)cc2)cc(OC)c1`, for which the IC50 in assay [5] and in assay [6] was > 66 µM (inactive) each time.

Turning to `COC(=O)C1=C(C)N(Cc2ccccc2)C(NCCc2c[nH]c3ccccc23)=N[C@H]1c1cccc(F)c1`, the IC50 in [7] is > 20 µM (inactive). In addition, the AC50 in [2] is 6.45 µM (active).

For the compound `CC1(C(=O)NCc2ccc3c(c2)OCO3)CCN1Cc1csc2ccccc12` (stereo not drawn), the AC50 in assay [8] is 43 µM (active).

Turning to `N#Cc1c(O)nc(S)nc1-c1cccc(Cl)c1`, the IC50 in assay [5] and in assay [6] was > 66 µM (inactive) throughout.

As for `COc1ccc(/C=C(/NC(=O)c2ccco2)C(=O)N2CCCCCC2)cc1OC`, the EC50 in assay [1] and in [3] was > 112 µM (not active) throughout.

With `COc1ccc(N=NC2C(=O)N(c3ccccc3)N=C2C)cc1` (stereo not drawn), the IC50 at Nonstructural protein 1 is 27.1 µM (active).

Turning to `Cc1ccc(O)c(CNCCNCc2cc(C)ccc2O)c1`, the IC50 in [7] is > 20 µM (inactive).

For the compound `Cc1ccc(C(=O)Nc2nc(-c3ccccn3)cs2)cc1S(=O)(=O)N1CCOCC1`, the IC50 at Nonstructural protein 1 was 7.81 µM (active). Besides, the AC50 in assay [9] is 0.838 µM (active); in assay [10], > 70 µM (inactive); in assay [11], 0.976 µM (active); in the assay on INS1, 1.36 µM (active).

With `COc1ccc(CCNCc2cc(C)n(-c3ccc(OC)cc3)c2C)cc1`, the EC50 in [12] was > 260 µM (inactive); in [13] it was > 60 µM (not active); in assay [14], 1.85 µM (active). Besides, the IC50 at Nonstructural protein 1 is 44.7 µM (active).

Consider `CCN(CC)CCNC(=O)c1ccc(NC(=O)/C=C/c2ccc3ccccc3n2)cc1`, for which the IC50 at Nonstructural protein 1 is > 100 µM (active).

As for `Cc1c(NC(=S)N/N=C\c2ccccc2O)c(=O)n(-c2ccccc2)n1C`, the IC50 on Nonstructural protein 1 is 6.13 µM (active).

On to `COc1ccc(C(=O)CN2CCN(S(=O)(=O)c3cccc([N+](=O)[O-])c3)CC2)cc1OC`, for which the IC50 in assay [5] and in [6] was > 66 µM (inactive) throughout.

`O=C(O)CSc1c2ccccc2cc2ccccc12`: the IC50 in assay [5] and in assay [6] was > 66 µM (inactive) throughout.

Regarding `C[C@H]1CN([C@@H](C)CO)C(=O)Cc2cc(N(C)C)ccc2O[C@H]1CN(C)Cc1ccc(Cl)c(Cl)c1`, the AC50 in assay [8] was 40.2 µM (active).

Turning to `CCn1c(Cc2cccn2C)nnc1SCC(=O)c1ccc(C)cc1`, the EC50 in [1] and in [3] was > 112 µM (not active) throughout.

Regarding `CC=CCn1c(SCc2ccccc2)nc2c1c(=O)[nH]c(=O)n2C`, the IC50 in [5] and in assay [6] was > 66 µM (inactive) each time.

For the compound `COC(=O)C1=C(NC(=O)c2ccc(C)c(C)c2)CCS1`, the results for the EC50 (in the assay on H4; in assay [15]; in [16]) were 19 µM (active), > 120 µM (not active) and 13.3 µM (active), respectively. In addition, the results for the AC50 at Cytochrome P450 2C9 and on Cytochrome P450 2D6 were 14.1 µM (inconclusive) and 31.6 µM (inconclusive), respectively. The IC50 in assay [5] and in assay [6] was > 66 µM (inactive) throughout.

`O=C(O)C1C2C=CC(C2)C1C(=O)NCc1ccco1` (stereo not drawn): the EC50 in assay [1] and in assay [3] was > 112 µM (not active) each time.

In the case of `CC(=O)c1ccc(NC(=O)c2cc[nH]n2)cc1`, the EC50 is 7.07 µM (active) in [1] and 31.4 µM (active) in assay [3].

Regarding `CCCc1ccc(Oc2cc(N3CCOCC3)nc(-c3ccccc3)n2)cc1`, the EC50 in assay [1] and in assay [3] was > 112 µM (not active) in each case.

In the case of `Cc1ccccc1-c1nc(CS(=O)(=O)CC(=O)N2CCc3ccccc32)c(C)o1`, the EC50 in [1] and in assay [3] was > 112 µM (not active) in each case.

Take `Cc1ncc(CN2CCC(N3CCC(C(=O)N4CCCC4)CC3)CC2)s1`: the EC50 in assay [1] and in assay [3] was > 112 µM (not active) throughout.

`CCC(C)(C)NC(=O)CN(C(=O)c1snc(C(N)=O)c1N)c1ccc2nc(C)sc2c1`: the IC50 in [7] is > 20 µM (inactive).

For the compound `CCOc1cccc2sc(N(CCCN(C)C)C(=O)c3ccc(S(=O)(=O)N(CC)Cc4ccccc4)cc3)nc12`, the IC50 in assay [7] was > 20 µM (inactive). The CC50 in assay [4] was 27.7 µM (active).

For `O=C(NCCSc1c[nH]c2ccccc12)c1c(F)cccc1F`, the EC50 in [1] and in [3] was > 112 µM (not active) each time.

In the case of `O=C(CNCCC1=CCCCC1)Nc1ccc(N2CCCCCC2)cc1`, the IC50 at Nonstructural protein 1 was 13.8 µM (active). The EC50 is 12.3 µM (active) in [17] and 15.3 µM (active) in assay [18].

In the case of `O=C(CSc1ccc(-c2ccncc2)nn1)c1ccccc1`, the IC50 in assay [5] and in assay [6] was > 66 µM (inactive) throughout.

As to `CCSc1nc(N2CCCCC2)c2c(c1C#N)CCCC2`, the IC50 in assay [7] was > 20 µM (inactive).

As for `O=C(CCC(=O)N1CCOc2ccc(Cl)cc21)NCCCN1CCN(c2ccccc2F)CC1`, in assay [7], the IC50 was > 20 µM (inactive).

As to `Cc1c(N2C(=O)S/C(=C3\C(=O)Nc4ccccc43)C2=O)c(=O)n(-c2ccccc2)n1C`, the IC50 in assay [5] and in [6] was > 66 µM (inactive) in each case.

(Values after ChEMBL document CHEMBL1201862, “PubChem BioAssay data set” (2004).)
